Laboratory results: US20200001104A1, “SCALABLE MAGNETOMECHANICAL SCHEMES AND DEVICES FOR REMOTE CONTROL OF MECHANOSENSITIVE CELLS” (Massachusetts Institute of Technology, priority 2018, published 2020)
Entries after “also recorded” stand apart in the source; their conditions may differ. Like-named read-outs stand apart in the source and are kept apart here.

Tested on: dorsal root ganglion (DRG) explant cultures
Assay: Magnetomechanical stimulation in the presence of channel blockers, calcium imaging
Format: cell-based, rat
[1] = blocker at 100 μM, MNDs plus MF
[2] = cells incubated with blocker, all doses, one-way ANOVA, n=6

How did the “Ca2+ response to magnetomechanical stimulation” value [1] turn out when `[Cl][Gd]([Cl])[Cl]` [Gd^3+, Gadolinium(III) (Gd^3+) chloride] was run?
The value was “enhanced response; also recorded: increases Ca^2+ influx”.

What about the “Ca2+ response to magnetomechanical stimulation” value (blocker at 1000 μM (1 mM), MNDs plus MF) of the same compound?
The value was “reduced response; also recorded: nearly eliminates Ca^2+ activity”.

And the “fraction of cells responding to magnetomechanical stimulation” value (blocker at 1 mM, one-way ANOVA and Tukey's HSD, n=6)?
Its value is “significantly lower fraction”.

What does the source list for `CCCCCC/C=C\CCCCCCCC(=O)O` [PA, palmitoleic acid]?
Ca2+ response to magnetomechanical stimulation (blocker at 30-300 μM, MNDs plus MF): failed to block; also recorded: do not affect; number of responders to magnetomechanical stimulation [2]: No significant difference

Which “Ca2+ response to magnetomechanical stimulation” value does the source give for `NC1=N[C@H](O)[C@H]2[C@H]3O[C@]4(O)O[C@@H]([C@@H](O)[C@@]2(N1)[C@@H]4O)[C@]3(O)CO` [TTX, tetrodotoxin] here?
The value was “failed to block; also recorded: do not affect”.

And the “number of responders to magnetomechanical stimulation” value?
The value was “No significant difference”.

For ruthenium red [RuR], which “Ca2+ response (ΔF/F0) to magnetomechanical stimulation” value (blocker at 10 μM, MNDs plus MF) is on record?
The value was “larger ΔF/F0 changes; also recorded: increases”.

What about the “Ca2+ response to magnetomechanical stimulation” value [1] of the same compound?
Its value is “returns to baseline levels”.

And the “number of responders to magnetomechanical stimulation” value [2]?
The value was “No significant difference”.
